From the kinase profiling compilation of Christmann-Franck et al. (2016) come the findings set out here.

Common to all, as to details: compound 10.0 µM
Assay [1] addresses BMX (human) (UniProt P51813).
In assay [2] the target is MINK1 (human) (UniProt Q8N4C8).
The target in assay [3] is SRPK2 (human) (UniProt P78362).
In assay [4] the target is STK25 (human) (UniProt O00506).
In assay [5] the target is TSSK1B (human) (UniProt Q9BXA7).
In assay [6] the target is WEE1 (human) (UniProt P30291).
The subject of assay [7] is ABL1 (human), P00519 [E255K].
The subject of assay [8] is ABL1 (human), P00519 [Y253F].
Assay [9] has as its target ABL2 (human) (UniProt P42684).
In assay [10] the target is AKT2 (human) (UniProt P31751).
Assay [11] deals with ANKK1 (human) (UniProt Q8NFD2).
Assay [12] deals with CDK8 (human) (UniProt P49336).
In assay [13] the target is CLK2 (human) (UniProt P49760).
Assay [14] has as its target EGFR (human) (UniProt P00533).
The test system of assay [15] is EGFR (human), P00533 [746-750 del].
In assay [16] the test system is EGFR (human), P00533 [747-751 del / S ins].
Assay [17] relates to EGFR (human), P00533 [A750P; 747-749 del].
The test system of assay [18] is EGFR (human), P00533 [G719C].
The test system of assay [19] is EGFR (human), P00533 [G719S].
Assay [20] concerns EGFR (human), P00533 [L861Q].
The test system of assay [21] is EGFR (human), P00533 [T790M/L858R].
The subject of assay [22] is EGFR (human), P00533 [T790M].
Assay [23] deals with EPHB4 (human) (UniProt P54760).
The target in assay [24] is FRK (human) (UniProt P42685).
Assay [25] has as its target HIPK2 (human) (UniProt Q9H2X6).
The target of assay [26] is KDR (human) (UniProt P35968).
Assay [27] deals with KIT (human), P10721 [D816H].
The test system of assay [28] is KIT (human), P10721 [D816V].
Assay [29] concerns the target LCK (human) (UniProt P06239).
For assay [30], the target named is NEK1 (human) (UniProt Q96PY6).
The target in assay [31] is NTRK3 (human) (UniProt Q16288).
Sequence of NTRK3 (human) (Q16288 whole entry, looked up): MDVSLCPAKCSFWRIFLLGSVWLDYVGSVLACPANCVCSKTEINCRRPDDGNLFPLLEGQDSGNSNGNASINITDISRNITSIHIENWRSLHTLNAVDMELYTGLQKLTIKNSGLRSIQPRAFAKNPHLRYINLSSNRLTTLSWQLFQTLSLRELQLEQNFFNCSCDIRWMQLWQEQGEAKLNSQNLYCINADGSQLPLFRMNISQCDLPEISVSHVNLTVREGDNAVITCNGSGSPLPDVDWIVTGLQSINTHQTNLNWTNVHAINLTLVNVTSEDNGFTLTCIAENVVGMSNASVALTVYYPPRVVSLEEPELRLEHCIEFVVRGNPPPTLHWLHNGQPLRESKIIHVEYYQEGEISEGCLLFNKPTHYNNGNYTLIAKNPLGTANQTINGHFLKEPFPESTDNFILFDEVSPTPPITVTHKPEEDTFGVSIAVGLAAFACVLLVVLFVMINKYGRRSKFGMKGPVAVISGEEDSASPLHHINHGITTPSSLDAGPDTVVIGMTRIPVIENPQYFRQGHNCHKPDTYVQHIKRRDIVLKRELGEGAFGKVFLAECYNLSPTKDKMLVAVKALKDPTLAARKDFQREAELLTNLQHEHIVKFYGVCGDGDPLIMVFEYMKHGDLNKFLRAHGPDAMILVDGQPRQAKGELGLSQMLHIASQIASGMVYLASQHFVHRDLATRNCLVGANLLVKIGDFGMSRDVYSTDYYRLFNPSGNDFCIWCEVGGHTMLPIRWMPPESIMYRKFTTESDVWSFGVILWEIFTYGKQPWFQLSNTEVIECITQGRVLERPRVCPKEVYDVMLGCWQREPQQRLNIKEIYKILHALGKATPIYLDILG
Assay [32] deals with PAK2 (human) (UniProt Q13177).
In assay [33] the test system is PIK3CA (human), P42336 [C420R].
In assay [34] the test system is PIK3CA (human), P42336 [E542K].
Assay [35] relates to PIK3CA (human), P42336 [E545A].
Assay [36] relates to PIK3CA (human), P42336 [E545K].
Assay [37] relates to PIK3CA (human), P42336 [H1047Y].
Assay [38] has as its system PIK3CA (human), P42336 [M1043I].
The target of assay [39] is PIK3CG (human) (UniProt P48736).
For assay [40], the target named is RPS6KA5 KD2 (human) (UniProt O75582).
Assay [41] concerns the target SRC (human) (UniProt P12931).

Sequence of TSSK1B (human) (Q9BXA7 whole entry, looked up): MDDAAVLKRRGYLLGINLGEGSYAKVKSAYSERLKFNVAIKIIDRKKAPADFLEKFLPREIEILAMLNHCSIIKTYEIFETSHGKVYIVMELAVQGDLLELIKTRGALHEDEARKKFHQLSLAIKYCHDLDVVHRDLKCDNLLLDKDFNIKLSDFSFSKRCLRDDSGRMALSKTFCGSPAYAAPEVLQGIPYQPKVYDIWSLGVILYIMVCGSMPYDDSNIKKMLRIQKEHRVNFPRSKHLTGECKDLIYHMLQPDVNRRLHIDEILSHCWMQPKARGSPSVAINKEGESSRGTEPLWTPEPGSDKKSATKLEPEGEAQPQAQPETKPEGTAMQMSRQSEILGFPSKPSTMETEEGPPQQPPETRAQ
Sequence of SRPK2 (human) (P78362 whole entry, looked up): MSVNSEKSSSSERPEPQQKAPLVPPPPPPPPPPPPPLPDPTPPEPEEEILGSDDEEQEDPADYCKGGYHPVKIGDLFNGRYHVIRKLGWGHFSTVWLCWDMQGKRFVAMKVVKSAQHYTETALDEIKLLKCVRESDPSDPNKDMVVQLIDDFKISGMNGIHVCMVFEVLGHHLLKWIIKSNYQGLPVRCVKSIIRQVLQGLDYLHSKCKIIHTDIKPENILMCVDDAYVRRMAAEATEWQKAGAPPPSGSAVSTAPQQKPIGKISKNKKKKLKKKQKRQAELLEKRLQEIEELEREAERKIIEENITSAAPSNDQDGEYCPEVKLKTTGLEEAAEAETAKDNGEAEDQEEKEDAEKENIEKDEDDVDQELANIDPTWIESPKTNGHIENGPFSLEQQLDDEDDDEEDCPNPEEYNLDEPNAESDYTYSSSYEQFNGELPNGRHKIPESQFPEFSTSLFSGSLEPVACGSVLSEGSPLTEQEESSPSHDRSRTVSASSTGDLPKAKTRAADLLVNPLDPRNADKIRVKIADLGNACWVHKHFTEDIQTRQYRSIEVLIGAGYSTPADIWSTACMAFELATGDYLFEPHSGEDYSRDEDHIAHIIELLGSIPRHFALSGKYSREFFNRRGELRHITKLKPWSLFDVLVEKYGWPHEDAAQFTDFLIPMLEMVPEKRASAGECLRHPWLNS
Sequence of BMX (human) (P51813 whole entry, looked up): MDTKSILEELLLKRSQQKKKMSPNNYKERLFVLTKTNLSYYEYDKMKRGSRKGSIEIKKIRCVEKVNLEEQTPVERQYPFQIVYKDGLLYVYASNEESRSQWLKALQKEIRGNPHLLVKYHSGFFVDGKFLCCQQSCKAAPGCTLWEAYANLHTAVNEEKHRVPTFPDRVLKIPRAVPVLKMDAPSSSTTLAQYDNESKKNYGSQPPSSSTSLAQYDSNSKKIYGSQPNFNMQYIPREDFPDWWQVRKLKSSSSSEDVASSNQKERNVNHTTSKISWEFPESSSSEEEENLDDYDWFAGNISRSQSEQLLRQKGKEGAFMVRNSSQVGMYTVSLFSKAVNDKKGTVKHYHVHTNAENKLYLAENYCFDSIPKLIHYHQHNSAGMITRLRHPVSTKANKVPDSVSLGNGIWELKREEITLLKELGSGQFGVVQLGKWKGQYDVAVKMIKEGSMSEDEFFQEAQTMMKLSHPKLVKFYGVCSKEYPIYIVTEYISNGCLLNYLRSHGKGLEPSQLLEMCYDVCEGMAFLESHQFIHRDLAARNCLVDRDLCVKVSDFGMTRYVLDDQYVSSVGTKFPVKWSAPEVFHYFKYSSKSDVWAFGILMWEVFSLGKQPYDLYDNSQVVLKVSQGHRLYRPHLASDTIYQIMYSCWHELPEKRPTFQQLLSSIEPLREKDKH
Sequence of WEE1 (human) (P30291 whole entry, looked up): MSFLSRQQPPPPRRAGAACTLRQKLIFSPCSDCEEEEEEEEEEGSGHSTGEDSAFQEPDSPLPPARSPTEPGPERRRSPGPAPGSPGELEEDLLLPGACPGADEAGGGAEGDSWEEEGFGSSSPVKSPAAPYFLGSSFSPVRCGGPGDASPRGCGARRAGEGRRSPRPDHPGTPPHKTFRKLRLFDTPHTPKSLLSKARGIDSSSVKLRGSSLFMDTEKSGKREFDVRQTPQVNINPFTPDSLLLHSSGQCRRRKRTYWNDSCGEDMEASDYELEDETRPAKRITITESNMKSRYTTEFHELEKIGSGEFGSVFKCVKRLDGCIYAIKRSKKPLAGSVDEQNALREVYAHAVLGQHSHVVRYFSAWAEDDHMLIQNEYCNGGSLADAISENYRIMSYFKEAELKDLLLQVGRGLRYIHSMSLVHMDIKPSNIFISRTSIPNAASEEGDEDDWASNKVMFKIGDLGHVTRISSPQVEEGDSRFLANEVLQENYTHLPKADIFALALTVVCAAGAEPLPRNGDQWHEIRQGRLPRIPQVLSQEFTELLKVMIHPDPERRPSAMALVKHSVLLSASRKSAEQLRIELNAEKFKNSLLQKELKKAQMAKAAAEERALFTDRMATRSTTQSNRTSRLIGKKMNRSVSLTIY
Sequence of STK25 (human) (O00506 whole entry, looked up): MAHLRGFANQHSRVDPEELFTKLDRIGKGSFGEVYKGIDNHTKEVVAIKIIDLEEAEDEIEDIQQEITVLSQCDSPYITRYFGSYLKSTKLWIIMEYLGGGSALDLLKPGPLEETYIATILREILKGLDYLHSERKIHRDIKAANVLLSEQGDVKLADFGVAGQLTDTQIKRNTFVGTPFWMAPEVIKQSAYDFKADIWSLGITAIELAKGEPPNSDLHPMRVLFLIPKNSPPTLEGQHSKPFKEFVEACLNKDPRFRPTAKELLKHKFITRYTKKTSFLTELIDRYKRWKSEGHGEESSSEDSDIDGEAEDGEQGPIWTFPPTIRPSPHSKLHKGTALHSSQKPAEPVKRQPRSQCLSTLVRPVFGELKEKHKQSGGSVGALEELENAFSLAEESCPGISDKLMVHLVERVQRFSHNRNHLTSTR
Sequence of MINK1 (human) (Q8N4C8 whole entry, looked up): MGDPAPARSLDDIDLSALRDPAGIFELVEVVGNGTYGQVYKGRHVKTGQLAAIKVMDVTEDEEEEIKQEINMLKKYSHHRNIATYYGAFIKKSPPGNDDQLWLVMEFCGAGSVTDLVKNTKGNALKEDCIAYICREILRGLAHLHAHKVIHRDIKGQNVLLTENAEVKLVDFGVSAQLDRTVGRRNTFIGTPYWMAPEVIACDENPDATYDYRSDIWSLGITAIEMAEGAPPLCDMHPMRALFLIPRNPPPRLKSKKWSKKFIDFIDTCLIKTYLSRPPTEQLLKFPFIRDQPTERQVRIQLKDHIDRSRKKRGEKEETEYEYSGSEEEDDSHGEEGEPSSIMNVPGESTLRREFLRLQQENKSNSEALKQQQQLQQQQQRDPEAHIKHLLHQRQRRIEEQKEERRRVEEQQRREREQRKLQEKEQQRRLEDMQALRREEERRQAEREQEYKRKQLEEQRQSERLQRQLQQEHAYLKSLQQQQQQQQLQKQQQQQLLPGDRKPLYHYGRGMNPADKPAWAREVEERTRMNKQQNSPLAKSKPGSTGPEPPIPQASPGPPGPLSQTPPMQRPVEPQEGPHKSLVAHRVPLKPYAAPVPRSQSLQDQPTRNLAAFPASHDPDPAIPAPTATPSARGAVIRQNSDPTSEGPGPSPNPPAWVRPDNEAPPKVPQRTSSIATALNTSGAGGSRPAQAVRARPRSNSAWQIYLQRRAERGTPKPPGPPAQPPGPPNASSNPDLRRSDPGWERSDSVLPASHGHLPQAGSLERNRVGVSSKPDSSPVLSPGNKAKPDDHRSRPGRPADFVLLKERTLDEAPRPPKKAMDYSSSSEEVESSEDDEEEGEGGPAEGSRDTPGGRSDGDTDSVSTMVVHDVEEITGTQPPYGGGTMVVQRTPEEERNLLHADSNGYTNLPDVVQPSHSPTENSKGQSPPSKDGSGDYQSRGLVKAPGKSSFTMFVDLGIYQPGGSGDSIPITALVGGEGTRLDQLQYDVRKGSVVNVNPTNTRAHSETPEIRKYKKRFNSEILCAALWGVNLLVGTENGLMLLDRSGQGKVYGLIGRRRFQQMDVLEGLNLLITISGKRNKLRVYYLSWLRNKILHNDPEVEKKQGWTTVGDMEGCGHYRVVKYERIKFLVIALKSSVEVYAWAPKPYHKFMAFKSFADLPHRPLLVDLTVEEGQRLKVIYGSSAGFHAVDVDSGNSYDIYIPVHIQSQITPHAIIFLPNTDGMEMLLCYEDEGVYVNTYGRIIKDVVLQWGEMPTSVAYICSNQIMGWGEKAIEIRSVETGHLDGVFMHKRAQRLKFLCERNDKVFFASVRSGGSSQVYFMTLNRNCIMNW

On to `CNC(=O)c1cc(Oc2ccc(NC(=O)Nc3ccc(Cl)c(C(F)(F)F)c3)cc2)ccn1`, for which the per cent of control in assay [1] came to 94%; in [2], 80%; in assay [3] it was 100%; in [4], 100%; in assay [5], 98%; in assay [6] it was 100%.
Take `CNC(=O)c1cc(Oc2ccc(NC(=O)Nc3ccc(Cl)c(C(F)(F)F)c3)cc2)cc[n+]1[O-]`: the per cent of control in [7] came out at 38%; in assay [8], 30%; in [9] it was 25%; in assay [10], 88%; in [11], 58%; in assay [1], 67%. Further, the per cent of control in [12] is 0.6%; in [13], 80%; in assay [14], 75%; in [15], 84%; in [16], 76%; in assay [17], 70%. Further, the per cent of control in [18] turned out to be 80%; in assay [19] it was 100%; in assay [20], 74%; in [21], 82%; in [22] it was 100%; in assay [23] it was 16%. The per cent of control in assay [24] came to 1.8%; in [25] it was 20%; in assay [26] it was 0.4%; in assay [27] it was 17%; in [28], 2.6%; in assay [29] it was 2.5%. For the same compound, the per cent of control in assay [2] turned out to be 2.4%; in assay [30], 84%; in assay [31], 0.35%; in [32] it was 93%; in assay [33], 40%; in assay [34], 100%. The per cent of control in [35] was found to be 100%; in assay [36], 100%; in [37] it was 100%; in [38] it was 83%; in assay [39] it was 82%; in assay [40], 81%. The per cent of control in assay [41] is 53%; in assay [3] it was 73%; in assay [4] it was 32%; in assay [5], 100%; in [6], 100%.
